Source: ChEMBL document CHEMBL3804754, “Optimization of Novel Aza-benzimidazolone mGluR2 PAMs with Respect to LLE and PK Properties and Mitigation of CYP TDI” (ACS Med Chem Lett, 2016)
Values after ≈ are worked out from the molar mass of the structure shown. Active and inactive are the calls of the source. The rule behind the calls is not given here.

Experiments:
[1] = Half life in Beagle dog at 0.5 mg/kg, iv administered as single dose; type: ADME, organism-based, Canis lupus familiaris; details: in vivo
[2] = Substrate activity at human P-gp assessed as apparent permeability; type: ADME
[3] = target: Metabotropic glutamate receptor 4 (Homo sapiens, UniProt Q14833); assay: Positive allosteric modulation of mGlu4 receptor (unknown origin)
[4] = system: P-gp; assay: Substrate activity at rat P-gp assessed as efflux ratio of apparent permeability from basolateral to apical side to apical to basolateral side; type: ADME; details: not told
[5] = system: P-gp; assay: Substrate activity at rat P-gp assessed as apparent permeability; type: ADME; details: not told
[6] = Clearance in Beagle dog at 0.5 mg/kg, iv administered as single dose; type: ADME, organism-based, Canis lupus familiaris; details: in vivo
[7] = target: Metabotropic glutamate receptor 3 (Homo sapiens, UniProt Q14832); assay: Positive allosteric modulation of mGlu3 receptor (unknown origin)
[8] = target: Metabotropic glutamate receptor 6 (Homo sapiens, UniProt O15303); assay: Positive allosteric modulation of mGlu6 receptor (unknown origin)
[9] = target: T1, Metabotropic glutamate receptor 2 (Homo sapiens, UniProt Q14416); assay: Agonist activity at recombinant human mGlu2 receptor expressed in CHO cells assessed as potentiation of glutamate-induced effect preincubated for 5 mins followed by glutamate stimulation for 3 mins by Fluo-4AM staining-based FLIPR assay; type: cell-based
[10] = target: T1, Metabotropic glutamate receptor 2; assay: Positive allosteric modulation of recombinant human mGlu2 receptor expressed in CHO cells assessed as potentiation of glutamate-induced effect preincubated for 5 mins followed by glutamate stimulation for 3 mins by Fluo-4AM staining-based FLIPR assay; type: cell-based
[11] = target: Metabotropic glutamate receptor 5 (Homo sapiens, UniProt P41594); assay: Positive allosteric modulation of mGlu5 receptor (unknown origin)
[12] = AUC in Wistar Hannover rat at 10 mg/kg, po administered as single dose; type: ADME, organism-based; details: Wistar Hannover, in vivo
[13] = Solubility of compound at pH 7; type: physicochemical; details: buffer
[14] = target: T1, Metabotropic glutamate receptor 2; assay: Positive allosteric modulation of recombinant human mGlu2 receptor expressed in CHO cells assessed as decrease in glutamate EC50 at 1 uM preincubated for 5 mins followed by glutamate stimulation for 3 mins by Fluo-4AM staining-based FLIPR assay relative to control; type: cell-based
Target sequence in this assay (Q14416 19-872 limits assumed): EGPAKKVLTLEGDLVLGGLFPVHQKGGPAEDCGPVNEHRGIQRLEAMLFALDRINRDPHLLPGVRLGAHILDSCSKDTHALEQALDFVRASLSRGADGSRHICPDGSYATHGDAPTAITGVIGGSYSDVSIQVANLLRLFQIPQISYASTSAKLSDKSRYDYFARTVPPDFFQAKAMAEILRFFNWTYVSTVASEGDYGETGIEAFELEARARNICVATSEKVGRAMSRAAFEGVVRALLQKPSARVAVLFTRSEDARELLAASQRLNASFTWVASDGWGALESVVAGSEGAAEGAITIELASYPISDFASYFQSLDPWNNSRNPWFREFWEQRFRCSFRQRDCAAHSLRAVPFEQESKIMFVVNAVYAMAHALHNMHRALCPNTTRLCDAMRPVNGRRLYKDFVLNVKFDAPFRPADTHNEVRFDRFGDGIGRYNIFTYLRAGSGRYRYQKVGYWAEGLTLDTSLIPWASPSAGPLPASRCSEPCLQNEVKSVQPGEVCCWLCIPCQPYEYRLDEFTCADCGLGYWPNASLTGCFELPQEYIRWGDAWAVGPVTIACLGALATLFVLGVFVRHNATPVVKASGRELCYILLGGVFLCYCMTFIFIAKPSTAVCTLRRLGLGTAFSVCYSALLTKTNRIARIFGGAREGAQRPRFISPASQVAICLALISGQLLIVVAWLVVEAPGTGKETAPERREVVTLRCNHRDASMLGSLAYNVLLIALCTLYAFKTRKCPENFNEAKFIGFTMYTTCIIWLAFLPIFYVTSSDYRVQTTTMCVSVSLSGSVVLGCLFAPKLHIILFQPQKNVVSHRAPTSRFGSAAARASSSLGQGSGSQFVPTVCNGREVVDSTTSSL

[15] = system: Salmonella typhimurium; assay: Mutagenicity in Salmonella typhimurium by Ames test in absence of S9 liver fraction; type: toxicity, organism-based; details: salmonella enterica subsp. enterica serovar typhimurium
[16] = system: Rattus norvegicus; assay: Fraction unbound adjusted clearance in Wistar Hannover rat at 2 mg/kg, iv administered as single dose; type: ADME, organism-based; details: in vivo
[17] = system: Salmonella typhimurium; assay: Mutagenicity in Salmonella typhimurium by Ames test in presence of S9 liver fraction; type: toxicity, organism-based; details: salmonella enterica subsp. enterica serovar typhimurium
[18] = target: CYP3A4 (Homo sapiens, UniProt P08684); assay: Inhibition of CYP3A4 in human liver microsomes at 10 uM; type: ADME
[19] = organism: Homo sapiens; assay: Activity at PDE10 (unknown origin)
[20] = Fraction unbound in Beagle dog plasma at 0.5 mg/kg, iv administered as single dose; type: ADME, organism-based, Canis lupus familiaris
[21] = system: Canis familiaris; assay: Fraction unbound adjusted clearance in Beagle dog at 0.5 mg/kg, iv administered as single dose; type: ADME, organism-based, Canis lupus familiaris; details: in vivo
[22] = target: D(2) dopamine receptor (Homo sapiens) (UniProt P14416); assay: Activity at dopamine D2 receptor (unknown origin)
[23] = Half life in Wistar Hannover rat at 2 mg/kg, iv administered as single dose; type: ADME, organism-based; details: in vivo
[24] = Fraction unbound in Wistar Hannover rat plasma at 2 mg/kg, iv administered as single dose; type: ADME, organism-based
[25] = system: Rattus norvegicus; assay: Antipsychotic activity in Sprague-Dawley rat assessed as inhibition of MK-801-induced hyperlocomotive activity at 30 mg/kg, treated for 30 mins followed by MK-801 challenge measured over 90 mins relative to vehicle control; type: functional, organism-based
[26] = target: 5-hydroxytryptamine receptor 2A (Homo sapiens) (UniProt P28223); assay: Activity at 5HT2A receptor (unknown origin)
[27] = system: Cerebrospinal fluid; assay: Drug uptake in Sprague-Dawley rat cerebrospinal fluid at 30 mg/kg, po; type: ADME, organism-based; details: in vivo, read-out: Drug uptake
[28] = Clearance in Wistar Hannover rat at 2 mg/kg, iv administered as single dose; type: ADME, organism-based; details: in vivo
[29] = Oral bioavailability in Wistar Hannover rat at 10 mg/kg administered as single dose; type: ADME, organism-based; details: Wistar Hannover, in vivo

Metabotropic glutamate receptor 6, sequence (O15303 whole entry): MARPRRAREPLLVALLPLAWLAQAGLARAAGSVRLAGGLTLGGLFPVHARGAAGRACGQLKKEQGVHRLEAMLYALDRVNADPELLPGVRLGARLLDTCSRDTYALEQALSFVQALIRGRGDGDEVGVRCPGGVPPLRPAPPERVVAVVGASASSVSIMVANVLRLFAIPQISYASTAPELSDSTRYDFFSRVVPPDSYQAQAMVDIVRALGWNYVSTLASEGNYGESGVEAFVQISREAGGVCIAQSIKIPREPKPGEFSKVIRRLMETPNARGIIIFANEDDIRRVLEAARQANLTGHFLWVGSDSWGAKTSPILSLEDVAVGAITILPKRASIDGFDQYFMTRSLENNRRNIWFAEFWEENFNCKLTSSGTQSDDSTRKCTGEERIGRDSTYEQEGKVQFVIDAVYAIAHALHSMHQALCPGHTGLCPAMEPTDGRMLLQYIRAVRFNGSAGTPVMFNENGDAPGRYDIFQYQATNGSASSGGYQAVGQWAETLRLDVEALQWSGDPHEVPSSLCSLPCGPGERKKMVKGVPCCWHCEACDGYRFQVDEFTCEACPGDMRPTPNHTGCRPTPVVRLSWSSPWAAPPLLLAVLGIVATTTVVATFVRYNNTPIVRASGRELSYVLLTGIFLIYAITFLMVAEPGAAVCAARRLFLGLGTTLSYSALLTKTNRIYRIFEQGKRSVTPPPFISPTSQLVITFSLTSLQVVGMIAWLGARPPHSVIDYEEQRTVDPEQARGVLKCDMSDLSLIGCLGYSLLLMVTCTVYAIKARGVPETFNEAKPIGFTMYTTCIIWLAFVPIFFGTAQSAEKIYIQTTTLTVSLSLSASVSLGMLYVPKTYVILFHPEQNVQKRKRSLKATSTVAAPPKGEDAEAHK
Metabotropic glutamate receptor 3, sequence (Q14832 whole entry): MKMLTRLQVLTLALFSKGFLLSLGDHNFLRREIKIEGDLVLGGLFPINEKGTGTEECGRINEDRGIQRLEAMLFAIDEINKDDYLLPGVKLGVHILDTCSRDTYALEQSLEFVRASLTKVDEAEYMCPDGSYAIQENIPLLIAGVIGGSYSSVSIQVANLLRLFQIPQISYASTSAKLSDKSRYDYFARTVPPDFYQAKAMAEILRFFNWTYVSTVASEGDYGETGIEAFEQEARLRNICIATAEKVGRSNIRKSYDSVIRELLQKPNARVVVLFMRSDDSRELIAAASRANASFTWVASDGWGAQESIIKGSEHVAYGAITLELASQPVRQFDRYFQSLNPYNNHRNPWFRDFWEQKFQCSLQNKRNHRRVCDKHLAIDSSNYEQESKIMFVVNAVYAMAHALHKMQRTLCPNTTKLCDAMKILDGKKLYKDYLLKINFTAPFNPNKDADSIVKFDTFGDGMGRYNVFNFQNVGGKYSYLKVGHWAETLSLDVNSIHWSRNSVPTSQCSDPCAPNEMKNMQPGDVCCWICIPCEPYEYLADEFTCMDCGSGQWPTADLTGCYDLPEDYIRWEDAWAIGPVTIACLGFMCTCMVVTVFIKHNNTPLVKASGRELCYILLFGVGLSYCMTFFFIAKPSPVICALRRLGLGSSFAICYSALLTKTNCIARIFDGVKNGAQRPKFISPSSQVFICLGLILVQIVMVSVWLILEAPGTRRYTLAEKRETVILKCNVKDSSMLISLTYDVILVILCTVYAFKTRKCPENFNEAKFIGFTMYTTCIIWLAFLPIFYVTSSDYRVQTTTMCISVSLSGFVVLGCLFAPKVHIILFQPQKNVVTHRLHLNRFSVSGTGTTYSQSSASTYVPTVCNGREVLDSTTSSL
Metabotropic glutamate receptor 4, sequence (Q14833 whole entry): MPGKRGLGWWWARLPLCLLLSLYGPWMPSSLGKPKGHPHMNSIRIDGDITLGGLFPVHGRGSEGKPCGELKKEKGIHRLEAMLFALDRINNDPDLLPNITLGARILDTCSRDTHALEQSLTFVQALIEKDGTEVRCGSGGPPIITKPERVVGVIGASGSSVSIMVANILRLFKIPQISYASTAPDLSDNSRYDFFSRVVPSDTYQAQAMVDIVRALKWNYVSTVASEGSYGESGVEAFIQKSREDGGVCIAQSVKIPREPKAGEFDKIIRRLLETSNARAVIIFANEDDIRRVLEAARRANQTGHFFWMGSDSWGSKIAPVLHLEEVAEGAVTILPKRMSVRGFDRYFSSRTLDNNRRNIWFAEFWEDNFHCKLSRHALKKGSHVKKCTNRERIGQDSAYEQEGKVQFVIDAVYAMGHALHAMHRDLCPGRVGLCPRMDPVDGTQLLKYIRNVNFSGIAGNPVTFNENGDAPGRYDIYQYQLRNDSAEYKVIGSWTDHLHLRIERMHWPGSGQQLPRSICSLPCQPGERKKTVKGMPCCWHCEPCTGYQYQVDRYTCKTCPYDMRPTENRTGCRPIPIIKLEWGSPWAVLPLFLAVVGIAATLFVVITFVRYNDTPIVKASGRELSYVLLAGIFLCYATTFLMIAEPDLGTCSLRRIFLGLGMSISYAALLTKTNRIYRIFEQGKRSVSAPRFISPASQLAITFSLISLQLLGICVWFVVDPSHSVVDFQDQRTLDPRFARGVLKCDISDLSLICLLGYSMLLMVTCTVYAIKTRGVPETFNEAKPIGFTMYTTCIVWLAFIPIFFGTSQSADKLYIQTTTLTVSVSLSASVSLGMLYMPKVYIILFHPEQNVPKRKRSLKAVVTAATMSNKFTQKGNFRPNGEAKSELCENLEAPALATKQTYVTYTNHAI
Metabotropic glutamate receptor 5, sequence (P41594 whole entry): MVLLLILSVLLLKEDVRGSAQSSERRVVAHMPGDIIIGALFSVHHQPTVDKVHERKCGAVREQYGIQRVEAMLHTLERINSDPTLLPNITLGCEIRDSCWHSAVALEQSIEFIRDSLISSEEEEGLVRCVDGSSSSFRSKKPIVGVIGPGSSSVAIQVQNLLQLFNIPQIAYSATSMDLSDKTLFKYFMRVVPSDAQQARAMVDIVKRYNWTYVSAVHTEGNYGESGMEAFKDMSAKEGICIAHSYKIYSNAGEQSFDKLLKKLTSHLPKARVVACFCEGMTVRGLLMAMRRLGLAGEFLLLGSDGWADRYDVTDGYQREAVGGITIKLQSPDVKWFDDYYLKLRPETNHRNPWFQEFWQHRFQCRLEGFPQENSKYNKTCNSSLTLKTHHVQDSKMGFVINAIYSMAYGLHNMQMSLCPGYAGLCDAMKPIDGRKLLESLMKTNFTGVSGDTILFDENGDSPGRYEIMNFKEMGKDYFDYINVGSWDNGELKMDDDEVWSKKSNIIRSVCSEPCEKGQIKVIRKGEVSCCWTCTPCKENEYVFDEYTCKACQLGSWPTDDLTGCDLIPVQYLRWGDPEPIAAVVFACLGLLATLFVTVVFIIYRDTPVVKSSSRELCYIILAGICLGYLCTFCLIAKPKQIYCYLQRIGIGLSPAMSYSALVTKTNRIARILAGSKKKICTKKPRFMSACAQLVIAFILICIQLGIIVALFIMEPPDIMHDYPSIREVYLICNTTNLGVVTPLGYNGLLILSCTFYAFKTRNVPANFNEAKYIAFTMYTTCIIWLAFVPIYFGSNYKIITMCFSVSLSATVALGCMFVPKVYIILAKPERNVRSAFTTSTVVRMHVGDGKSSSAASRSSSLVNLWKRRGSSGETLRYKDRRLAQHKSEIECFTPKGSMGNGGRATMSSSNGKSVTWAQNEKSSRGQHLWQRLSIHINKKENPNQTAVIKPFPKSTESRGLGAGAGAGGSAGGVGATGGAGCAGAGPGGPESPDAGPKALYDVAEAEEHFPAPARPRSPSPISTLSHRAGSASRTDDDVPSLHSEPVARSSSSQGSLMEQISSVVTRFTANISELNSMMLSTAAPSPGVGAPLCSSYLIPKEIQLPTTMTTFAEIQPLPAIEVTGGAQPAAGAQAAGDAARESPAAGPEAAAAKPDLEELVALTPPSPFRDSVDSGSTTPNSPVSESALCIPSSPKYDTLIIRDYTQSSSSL

For `Cn1c(=O)n(CC(C)(C)C)c2ccc(N3C[C@@H]4CC[C@H]3CN4C(=O)c3csnn3)nc21`, the half-life [1] was 2.5 h, the Activity [2] was “Not Active” and the EC50 [3] was greater than 30 µM. It also gave an efflux ratio [4] of 1.1, a Papp [5] of 30 ×10⁻⁶ cm/s and a clearance [6] of 14 mL/min/kg. For the same compound, the EC50 [7] was greater than 30 µM, the EC50 [8] was greater than 30 µM and the %max [9] was 49%. The EC50 [9] was 0.637 µM, the %max [10] was 72% and the EC50 [10] was 0.029 µM. The EC50 [11] was greater than 30 µM, the AUC [12] was 13 µM·h and the solubility [13] was 116 µM (≈ 51.2 µg/mL). For the same compound, the fold change (FC) [14] was 26.
For `Cn1c(=O)n(CC(C)(C)C)c2ccc(C3=C[C@@H]4CC[C@H]3CN4C(=O)c3ccon3)nc21`, the half-life [1] was 16 h, the Activity [15] was “Non-toxic” and the EC50 [3] was greater than 30 µM. For the same compound, the CL free [16] was 17 mL/min/kg, the Activity [17] was “Non-toxic” and the inhibition at 10 µM [18] was 6%. For the same compound, the Activity [19] was “inactive”, the EC50 [7] was greater than 30 µM and the fraction unbound [20] was 0.02. The EC50 [8] was greater than 30 µM, the CL free [21] was 4.7 mL/min/kg and the Activity [22] was “inactive”. For the same compound, the half-life [23] was 10 h, the fraction unbound [24] was 0.02 and the %max [10] was 78%. The EC50 [11] was greater than 30 µM, the Activity [25] was “Active” and the Activity [26] was “inactive”. The concentration [27] was 61 nM.
With `Cn1c(=O)n(CC(C)(C)C)c2ccc(N3CC4CCC3CN4C(=O)OC(C)(C)C)nc21` (racemic) the EC50 [3] was greater than 30 µM, the EC50 [7] was greater than 30 µM and the EC50 [8] was greater than 30 µM. The %max [10] was 70%, the EC50 [10] was 0.125 µM and the EC50 [11] was greater than 30 µM.
`Cn1c(=O)n(CC(C)(C)C)c2ccc(N3CC4CCC3CN4C(=O)c3ccccc3)nc21` (racemic) gave a CL free [16] of 35 mL/min/kg, a clearance [28] of 69 mL/min/kg and a bioavailability [29] of 10%. For the same compound, the half-life [23] was 1.2 h, the %max [10] was 71% and the EC50 [10] was 0.036 µM. The AUC [12] was 2 µM·h and the solubility [13] was 66 µM (≈ 28.6 µg/mL).
For `Cc1cc(CN2CC3CCC2CN3c2ccc3c(n2)n(C)c(=O)n3CC(C)(C)C)no1` (racemic), the %max [10] was 74%, the EC50 [10] was 0.149 µM and the AUC [12] was 2 µM·h. It also gave a solubility [13] of 186 µM (≈ 79 µg/mL).
In the case of `Cn1c(=O)n(CC(C)(C)C)c2ccc(N3CCCCC3)nc21`, the EC50 [3] is reported as greater than 30 µM, the EC50 [7] is reported as greater than 30 µM and the EC50 [8] is reported as greater than 30 µM. For the same compound, the %max [10] was 87%, the EC50 [10] was 0.43 µM and the EC50 [11] was greater than 30 µM.
